Source: the RepoRT retention time repository

Assay: Agilent ZORBAX 300 SB-C18, 150 × 1 mm, 3.5 µm; A: water + 0.01% heptafluorobutyric acid; B: acetonitrile + 0.01% heptafluorobutyric acid; gradient (min/%B) 0/0 100/90
Conditions: stereoisomer not certain

`NC(=O)C1(N2CCCCC2)CCN(C(=O)CN2CCNCC2)CC1` and `COC(=O)CC1CN=C(N2CCCCC2)NC1=O` (centres undefined) are within 1.5-fold of each other in LC retention time: 7.28 min for the first, 7.95 min for the second.

`S=C(NN=Cc1cccnc1)Nc1ccccc1` and `O=C(NN=Cc1ccco1)c1ccccc1` are within 1.5-fold of each other in LC retention time: 9.9 min for the first, 9.65 min for the second.

`CCC(NC(C)C)C(O)c1ccc(O)c2[nH]c(=O)ccc12` (centres undefined) and `CC(C)NCC(O)COc1cccc2ccccc12` (centres undefined) are within 1.5-fold of each other in LC retention time: 7.81 min for the first, 10.4 min for the second.

`Cc1nc2ccccc2nc1N=C(N)NC(=O)c1ccccc1` and `c1ccc(-c2ccc3ccccc3n2)cc1` are within 1.5-fold of each other in LC retention time: 11.1 min for the first, 13.1 min for the second.

`C=CCN1CCC23CCCCC2C1Cc1ccc(O)cc13` (centres undefined) and `COc1cccc(C2(O)CCCCC2CN(C)C)c1` (centres undefined) are within 1.5-fold of each other in LC retention time: 9.82 min for the first, 9.38 min for the second.

`CN(C)c1nc(N)nc(N(C)C)n1` and `Cc1cc(C)nc(NC(N)=NCCC(C)C)n1` are within 1.5-fold of each other in LC retention time: 8.03 min for the first, 10.3 min for the second.

`Cc1ccc(C(=O)NCCc2c(C)[nH]c3ccccc23)cc1` and `O=C(NCc1ccncc1)c1ccc(-c2ccccc2)cc1` are within 1.5-fold of each other in LC retention time: 13.6 min for the first, 10.2 min for the second.

`CC(C)NC(=O)C(=O)NCCCO` and `CCC(C)C(NC(C)=O)C(=O)O` (centres undefined) are within 1.5-fold of each other in LC retention time: 6.9 min for the first, 7.75 min for the second.

`Nc1ccc(Cc2ccncc2)cc1` and `COc1ccc(N)cc1` are within 1.5-fold of each other in LC retention time: 8.71 min for the first, 7.59 min for the second.

`CN(Cc1ccccc1)C(=O)c1ccco1` and `c1ccc(CN(c2ccccn2)c2ccccn2)cc1` are within 1.5-fold of each other in LC retention time: 11.8 min for the first, 11 min for the second.

`Cc1cc(C)c(CO)cc1C=NNC(N)=O` and `CC(=O)Nc1c(C)cc(C)cc1N` are within 1.5-fold of each other in LC retention time: 8.66 min for the first, 7.92 min for the second.

`CC(=O)c1c(C(C)=O)c(C)n(C)c1C` and `CC(=O)CNC(C)(C)C(C)=O` are within 1.5-fold of each other in LC retention time: 8.65 min for the first, 5.92 min for the second.

`CCCNC(=O)Nc1ccc(C(=O)OC)cc1` and `CC(=O)Nc1ccc(C(=O)NCc2ccccn2)cc1` are within 1.5-fold of each other in LC retention time: 10.8 min for the first, 7.41 min for the second.

Compared with `O=C(O)c1cc(=O)[nH]c(=O)[nH]1`, `Cc1cccc(Nc2cc(=O)[nH]c(=O)[nH]2)c1C` is 6.5-fold higher in LC retention time: 1.33 min for the first, 8.71 min for the second.

First: CN1CCNCC1
Second: O=CN1CCN(C=O)CC1
The LC retention time of the first is 1.9-fold higher: 6.48 min for the first, 3.45 min for the second.

`CN(C)CCNC1=CC(=O)CC(c2ccccc2)C1` (centres undefined) and `Nc1ccc(C(=O)N2CCC(c3ccccc3)C2)cc1` (centres undefined) are within 1.5-fold of each other in LC retention time: 8.55 min for the first, 11 min for the second.

`O=C(O)c1cc(N2CCCC2=O)cc(N2CCCC2=O)c1` and `Nc1ccc(N2CCCC2=O)cc1N1CCCC1=O` are within 1.5-fold of each other in LC retention time: 8.34 min for the first, 7.63 min for the second.

`Cc1ccc(NC(=S)NC2CC(C)(C)NC(C)(C)C2)c(C)c1` and `Cc1ccc(NC(=O)C=CC(=O)O)c(C)c1` are within 1.5-fold of each other in LC retention time: 9.61 min for the first, 10.8 min for the second.

`Cc1ccc(-n2cnnn2)nc1` and `Cc1cccc(C)n1` are within 1.5-fold of each other in LC retention time: 9.44 min for the first, 6.46 min for the second.

`Nc1ccccc1CO` and `NCC(=O)Nc1ccccc1` are within 1.5-fold of each other in LC retention time: 6.62 min for the first, 7.45 min for the second.

`C=CCC(N)(CC=C)C1=CC(CC(=C)C)NC(CC(=C)C)C1` (centres undefined) and `C=CCC1NC(C)(C)Cc2ccccc21` (centres undefined) are within 1.5-fold of each other in LC retention time: 8.79 min for the first, 9 min for the second.

Compared with `CC=CC(=O)CC`, `CCCCCCCCCC(=O)N(C)C` is 1.8-fold higher in LC retention time: 9.41 min for the first, 16.6 min for the second.

Going from `Nc1cc(N)[nH]c(=S)n1` to `Cc1nc(N)cc(=O)[nH]1`, the LC retention time falls from 6.42 min to 2.75 min (2.3-fold).

`Nc1ccc2cc[nH]c2c1` and `Cc1ccc(N)cc1N` are within 1.5-fold of each other in LC retention time: 7.56 min for the first, 6.85 min for the second.

`OC1CCCc2c1[nH]c1ccccc21` (centres undefined) and `c1ccc2c3c([nH]c2c1)CCCC3` are within 1.5-fold of each other in LC retention time: 11.4 min for the first, 15.7 min for the second.

`CCN(CC)CCn1cnc2c1c(=O)n(C)c(=O)n2C` and `COc1ccc(Cc2c(O)n(C)c(=O)n(C)c2=O)c(OC)c1OC` are within 1.5-fold of each other in LC retention time: 7.8 min for the first, 11.2 min for the second.

First: Cc1cc(C(=O)O)c2ccccc2n1
Second: CC(=O)Oc1ccccc1C=Cc1nc2ccccc2c(=O)o1
The LC retention time of the first is 2.7-fold lower: 5.51 min for the first, 14.8 min for the second.

`CCOC(=O)C=CC(=O)NNC(=O)C(c1ccccc1)c1ccccc1` and `c1ccc(C(NCc2cccs2)c2ccccc2)cc1` are within 1.5-fold of each other in LC retention time: 12.8 min for the first, 11.8 min for the second.

`NCCCn1ccnc1` and `CCCCn1ccnc1` are within 1.5-fold of each other in LC retention time: 6.66 min for the first, 7.5 min for the second.

`Cc1ccc2cc(C)c(NCc3cccnc3)nc2c1` and `Cc1ccncc1C` are within 1.5-fold of each other in LC retention time: 8.55 min for the first, 6.82 min for the second.

`Cc1cccc(OCC(O)CNC(C)C)c1` (centres undefined) and `Cc1cccc(-c2nc(=S)[nH][nH]2)c1` are within 1.5-fold of each other in LC retention time: 9.65 min for the first, 9.33 min for the second.

`Cc1n[nH]c(=O)nc1N=NCc1c[nH]c2ccccc12` and `S=c1[nH]c2ccccc2c2c1CCC2` are within 1.5-fold of each other in LC retention time: 10 min for the first, 12.1 min for the second.

`COc1ccc2cc3[n+](cc2c1OC)CCc1cc2c(cc1-3)OCO2` and `CCN(CCCCOC(=O)c1ccc(OC)c(OC)c1)C(C)Cc1ccc(OC)cc1` (centres undefined) are within 1.5-fold of each other in LC retention time: 10.6 min for the first, 11.9 min for the second.

`CC(=O)Oc1cccc(C(=O)NN2C(=O)c3ccccc3C2=O)c1` and `CN1C(=O)NC(c2ccccc2)C2=C1CN(c1ccc(CC(=O)O)cc1)C2=O` (centres undefined) are within 1.5-fold of each other in LC retention time: 11.1 min for the first, 9.56 min for the second.

Going from `CN1CCC23c4c5ccc(OC6OC(C(=O)O)C(O)C(O)C6O)c4OC2C(O)C=CC3C1C5` (centres undefined) to `CCc1ccc(N2CC(C(=O)O)CC2=O)cc1` (centres undefined), the LC retention time rises from 6.59 min to 10.5 min (1.6-fold).

`O=c1nc(N2CCOCC2)nc(N(c2ccccc2)c2ccccc2)[nH]1` and `c1ccc(C(c2ccccc2)c2nc(-c3ccncc3)no2)cc1` are within 1.5-fold of each other in LC retention time: 10.5 min for the first, 14.9 min for the second.

`Cc1cc(C(=O)N2CCCCC2)c2c(=O)n(CC(=O)Nc3ccccc3)c(=O)n(-c3ccccc3)c2n1` and `CCc1ccc(C(=O)CC(Nc2ccccc2)c2ccccc2)cc1` (centres undefined) are within 1.5-fold of each other in LC retention time: 13.5 min for the first, 18.4 min for the second.

Going from `CC(C(=O)c1ccccc1)[n+]1ccccc1` (centres undefined) to `CC=CC=CC(=O)Nc1ccc(C=CC(=O)c2ccccc2)cc1`, the LC retention time rises from 8.43 min to 15.7 min (1.9-fold).

First: CN(C)C(=O)C1OC(C)(C)OC1C(=O)N(C)C (centres undefined)
Second: CC(=O)C1(O)CCC2C3C=CC4=CC(=O)CCC4(C)C3CCC21C (centres undefined)
The LC retention time of the first is 1.7-fold lower: 8.25 min for the first, 13.8 min for the second.

`Nc1ccccn1` and `CC1Cc2ccccc2N1` (centres undefined) are within 1.5-fold of each other in LC retention time: 6.12 min for the first, 7.66 min for the second.

`Nc1ncc2c(n1)CCC2` and `NC(=O)NC1CCCCC1` are within 1.5-fold of each other in LC retention time: 6.96 min for the first, 7.79 min for the second.

`COC(=O)Cn1ncccc1=O` and `CCNCC(=O)Nc1c(C)cccc1C` are within 1.5-fold of each other in LC retention time: 6.64 min for the first, 8.77 min for the second.

`CCOc1cc(C(=O)N(CC)c2ccccc2)cc(OCC)c1OCC` and `CCCCCCCCCCOc1ccc(C(=O)NCCN2Cc3ccccc3C2=O)cc1` are within 1.5-fold of each other in LC retention time: 15.9 min for the first, 20.2 min for the second.

`CCCOC(=O)CCNc1n[nH]c(=O)[nH]c1=O` and `NC(CCC(=O)OCc1ccccc1)C(=O)O` (centres undefined) are within 1.5-fold of each other in LC retention time: 8.44 min for the first, 8.38 min for the second.

Compared with `CC(=O)NC(NC(C)=O)C(O)C(O)C(O)C(O)CO` (centres undefined), `CC(=O)Nc1cc(NC(C)=O)nc(NC(C)=O)n1` is 4.7-fold higher in LC retention time: 1.55 min for the first, 7.21 min for the second.

Going from `O=C(O)C1Cc2ccccc2CN1` (centres undefined) to `COc1ccc(NC(=O)c2cc3ccccc3oc2=N)cc1`, the LC retention time rises from 6.54 min to 10.1 min (1.5-fold).

`COc1ccc(N2C(=O)C=CC2=O)cc1` and `c1ccc(CCn2c(-c3ccccc3)csc2=Nc2ccccc2)cc1` are within 1.5-fold of each other in LC retention time: 9.62 min for the first, 13.8 min for the second.
